Measurements reported in patent US4156777A, “Process for producing glucopyranose-nitrosourea compounds and novel compounds included therein” (Tokyo Tanabe Company, Limited, priority 1977, dated 1979).

Legend:
[1] = Diabetogenic activity (blood glucose concentration after intravenous administration); format: in vivo, male Wister rats
Protocol: 40-96 mg/kg of the test compounds were administered intravenously to starved male Wister rats weighing 240-260 g each, and the blood glucose concentrations of the test animals were estimated by the glucose exidase method [L. L. Saloman et al: Anal. Chem., 31 (1959), 453], in which test the compounds were dissolved in physiological saline solution just before administration. […]

Acute toxicity (LD50) = format: in vivo, male Wister rats; details: for LD50 at 168 h: rat, in vivo, after 1 week
Protocol: Test compounds were dissolved in physiological saline solution just before their dosage and administered to male Wister rats, intraperitoneally, intravenously and orally. After 1 week, the LD50 of each compound was calculated from the mortality of the test animals by the Lichfield-Wilcoxon Method.
i.v.: intravenous administration

[2] = Effect on respiration, blood pressure, heart rate and electrocardiogram; format: in vivo, Beagle dogs
Protocol: Beagle dogs of both sexes weighing about 10 kg were anesthetized with pentobarbital sodium (30 mg/kg, i.v.), and immobilized in the supine position. Test compounds dissolved in physiological saline solution were injected into the brachial veins of the animals and the arteries at cannulated positions were treated with heparin sodium as anticoagulant.
The respiration rate of each animal was estimated with a respirometer (Nihonkohden, RP-3) through a tracheal cannula, the blood pressure with an electro-haemodynamometer (Nihonkohden, MP-4T) attached surgically to the femoral artery, and the heart rate with a pulse-rate tachometer (Nihonkohden, RT-2) through the trigger pulse of the blood pressure.

[3] = Absorption and excretion of 14C-labelled compounds; format: in vivo, rats
Protocol: The carbon atom at the 2-position of the chloroethyl group (i.e. ClCH2 CH2 -) of 6DCNU and 6MCαG was labelled with radioactive ^14 C, and the absorption and excretion of these compounds were tested using rats.

[4] = tested on: Bacillus subtilis ATCC 6633; assay: Antibacterial activity, broth-dilution method; format: cell-based; details: ATCC6633
Source text: (§1) Using 6DCNU and 6MCαG, minimum inhibiting concentrations (referred to as "MIC") for various kinds of bacteria were estimated by means of the broth-dilution method.

[5] = tested on: Escherichia coli NIHJ JC-2; assay: Antibacterial activity, broth-dilution method; format: cell-based; details: NIHJJC2
Source text: as §1

[6] = tested on: Klebsiella pneumoniae IFM 3008; assay: Antibacterial activity, broth-dilution method; format: cell-based; details: IFM3008
Source text: as §1

[7] = tested on: Mycobacterium smegmatis ATCC 607; assay: Antibacterial activity, broth-dilution method; format: cell-based; details: Mycolicibacterium smegmatis, ATCC607
Source text: as §1

[8] = tested on: Proteus vulgaris AHU 1469; assay: Antibacterial activity, broth-dilution method; format: cell-based; details: AHU1469
Source text: as §1

[9] = tested on: Pseudomonas aeruginosa IFO 3080; assay: Antibacterial activity, broth-dilution method; format: cell-based; details: IFO3080
Source text: as §1

Sarcina lutea ATCC 9341 = assay: Antibacterial activity, broth-dilution method; format: cell-based; details: Micrococcus luteus, ATCC9341
Source text: as §1

[10] = tested on: Staphylococcus aureus FDA 209P JC-1; assay: Antibacterial activity, broth-dilution method; format: cell-based; details: FDA209P
Source text: as §1

[11] = tested on: Streptococcus faecalis AHU 1085; assay: Antibacterial activity, broth-dilution method; format: cell-based; details: Enterococcus faecalis, AHU1085
Source text: as §1

O=NN(CCCl)C(=O)NC[C@H]1OC(O)[C@H](O)[C@@H](O)[C@@H]1O (stereo partly drawn) [Example 6DCNU, 3-(D-glucopyranos-6-yl)-1-(2-chloroethyl)-1-nitrosourea]
Blood Glucose Concentration ([1]; 40 mg/kg i.v., 0 hr after treatment): 70.4 mg/dL | Blood Glucose Concentration ([1]; 40 mg/kg i.v., 2 hr after treatment): 73.3 mg/dL | Blood Glucose Concentration ([1]; 40 mg/kg i.v., 4 hr after treatment): 67.7 mg/dL | Blood Glucose Concentration ([1]; 40 mg/kg i.v., 7 hr after treatment): 68.2 mg/dL | Blood Glucose Concentration ([1]; 40 mg/kg i.v., 10 hr after treatment): 68.3 mg/dL | Blood Glucose Concentration ([1]; 40 mg/kg i.v., 24 hr after treatment): 69.9 mg/dL | Blood Glucose Concentration ([1]; 40 mg/kg i.v., 48 hr after treatment): 73.8 mg/dL | Blood Glucose Concentration ([1]; 60 mg/kg i.v., 0 hr after treatment): 72.0 mg/dL | Blood Glucose Concentration ([1]; 60 mg/kg i.v., 2 hr after treatment): 74.2 mg/dL | Blood Glucose Concentration ([1]; 60 mg/kg i.v., 4 hr after treatment): 78.3 mg/dL | Blood Glucose Concentration ([1]; 60 mg/kg i.v., 7 hr after treatment): 76.8 mg/dL | Blood Glucose Concentration ([1]; 60 mg/kg i.v., 10 hr after treatment): 79.2 mg/dL | Blood Glucose Concentration ([1]; 60 mg/kg i.v., 24 hr after treatment): 78.7 mg/dL | Blood Glucose Concentration ([1]; 60 mg/kg i.v., 48 hr after treatment): 79.4 mg/dL | Blood Glucose Concentration ([1]; 77 mg/kg i.v., 0 hr after treatment): 72.4 mg/dL | Blood Glucose Concentration ([1]; 77 mg/kg i.v., 2 hr after treatment): 75.3 mg/dL | Blood Glucose Concentration ([1]; 77 mg/kg i.v., 4 hr after treatment): 75.8 mg/dL | Blood Glucose Concentration ([1]; 77 mg/kg i.v., 7 hr after treatment): 79.8 mg/dL | Blood Glucose Concentration ([1]; 77 mg/kg i.v., 10 hr after treatment): 76.2 mg/dL | Blood Glucose Concentration ([1]; 77 mg/kg i.v., 24 hr after treatment): 78.2 mg/dL | Blood Glucose Concentration ([1]; 77 mg/kg i.v., 48 hr after treatment): 80.5 mg/dL | blood glucose concentrations versus control, in words ([1]; i.v., rats): substantially the same blood glucose concentrations as that in the control | diabetogenic activity, in words ([1]; rat, in vivo): low diabetogenic activity | LD50 at 168 h (Acute toxicity (LD50); ip): 90 mg/kg | LD50 at 168 h (Acute toxicity (LD50); iv): 85 mg/kg | LD50 at 168 h (Acute toxicity (LD50); po): 132 mg/kg | LD50, comparison in words (Acute toxicity (LD50); rats): higher than that of the other known compounds | maximum dosage without effect, comparison in words ([2]; Beagle dogs): highest dosage value | NOAEL ([2]; dog, in vivo, iv, injected into brachial veins, anesthetized Beagle dogs, read-out: maximum dosage not effected on respiration, blood pressure, heart rate and electrocardiogram): 70 mg/kg | absorption, in words ([3]; rats, 14C-labelled): absorbed well | excretion rate, intravenous versus oral administration, in words ([3]; rats, 14C-labelled): almost the same excretion rates | main route of excretion, in words ([3]; rats, 14C-labelled): excreted mainly in the urine | excretion in faeces, comparison in words ([3]; versus 6MCαG): excreted more than 6MCαG in faeces | excretion velocity, comparison in words ([3]; versus 6MCαG): more rapid than that of 6MCαG | toxicity inferred from excretion, in words ([3]; versus 6MCαG): less toxic than 6MCαG | MIC [4]: > 200 µg/mL | MIC [5]: > 200 µg/mL | MIC [6]: > 200 µg/mL | MIC [7]: > 200 µg/mL | MIC [8]: > 200 µg/mL | MIC [9]: > 200 µg/mL | MIC (Sarcina lutea ATCC 9341): > 200 µg/mL | MIC [10]: > 200 µg/mL | MIC [11]: > 200 µg/mL
